Structures are written as SMILES.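 96-well plates; 48 h exposure; 5 concentrations. Endpoints by linear interpolation between flanking doses. Not reached: highest tested concentration assigned. GI50: concentration for 50% inhibition of growth. At the TGI there is no net growth.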

Some test systems named below: SK-OV-3 ovarian; NCI-H226 lung; OVCAR-4 ovarian; HCT-15 colon; HL-60(TB) leukemia; K-562 leukemia; MCF7 breast; SF-295 CNS; ACHN renal; M14 melanoma.
What all share (assay): inhibition of tumour cell growth, NCI panel, 48 h

With `CC(c1ccccc1)[C@@H](C(=O)Nc1ccc(I)cc1F)N1C(=O)N[C@H](c2ccc(OC[C@H](O)CO)cc2)C1=O` (stereo not given in full), the GI50 with SK-OV-3 ovarian is over 25 µM; in the assay with NCI-H226 lung, 14.5 µM; in the assay on OVCAR-4 ovarian, 8.97 µM; in the assay with HCT-15 colon it was 11.4 µM; in the assay on HL-60(TB) leukemia it was 0.313 µM; with K-562 leukemia, 9.38 µM. Further, the GI50 was over 15 µM with MCF7 breast, over 25 µM in the assay with SF-295 CNS, 8.48 µM in the assay on ACHN renal and 0.0707 µM in the assay with M14 melanoma. Further, the TGI with SK-OV-3 ovarian, in the assay with NCI-H226 lung, with OVCAR-4 ovarian, in the assay on HCT-15 colon, with HL-60(TB) leukemia and with K-562 leukemia was over 25 µM each time. Further, the TGI is over 25 µM in the assay with MCF7 breast, over 25 µM with SF-295 CNS, over 25 µM with ACHN renal and 5.74 µM with M14 melanoma.

As to `O=C(Nc1ccccc1C(F)(F)F)c1ccc(NC2=C(Cl)C(=O)N(Cc3ccccc3)C2=O)cc1`, the GI50 in the assay with SK-OV-3 ovarian was 57.7 µM; in the assay on NCI-H226 lung, 13.6 µM; in the assay with OVCAR-4 ovarian, 33.5 µM; in the assay with HCT-15 colon, 4.19 µM; in the assay with HL-60(TB) leukemia it was 2.96 µM; in the assay with K-562 leukemia it was 5.65 µM. Moreover, the GI50 in the assay with MCF7 breast was 7.33 µM; in the assay on SF-295 CNS it was 31.8 µM; in the assay with ACHN renal, 33.7 µM; with M14 melanoma it was 51.6 µM. The TGI is over 100 µM in the assay on SK-OV-3 ovarian; 92.2 µM with NCI-H226 lung; over 100 µM in the assay on OVCAR-4 ovarian; over 100 µM in the assay on HCT-15 colon; 17.6 µM with HL-60(TB) leukemia; 80.5 µM in the assay on K-562 leukemia. For the same compound, the TGI with MCF7 breast, with SF-295 CNS, in the assay with ACHN renal and in the assay on M14 melanoma was over 100 µM each time.

With `O=S(=O)(c1ccccc1)N1CN2CN(C1)CN(S(=O)(=O)c1ccccc1)C2`, the TGI with SK-OV-3 ovarian, in the assay with NCI-H226 lung, with OVCAR-4 ovarian, in the assay with HCT-15 colon, in the assay with HL-60(TB) leukemia and in the assay with K-562 leukemia was over 100 µM throughout. Besides, the TGI with MCF7 breast, in the assay on SF-295 CNS, with ACHN renal and in the assay with M14 melanoma was over 100 µM each time.

Regarding `CN(C)Cc1ccc(C(C)(C)C)cc1-c1cc(C(C)(C)C)ccc1CN(C)C`, the TGI in the assay on SK-OV-3 ovarian, with NCI-H226 lung, with OVCAR-4 ovarian, in the assay with HCT-15 colon, in the assay with HL-60(TB) leukemia and in the assay on K-562 leukemia was over 100 µM throughout. Moreover, the TGI was over 100 µM in the assay with MCF7 breast, over 100 µM in the assay with SF-295 CNS, over 100 µM in the assay with ACHN renal and 41.6 µM in the assay on M14 melanoma.

For `Cc1ccc(/C=C/c2c(C(=O)/C=C/c3ccc(Cl)cc3)c(C)nc3ccccc23)cc1`, the GI50 with SK-OV-3 ovarian is 3.74 µM; in the assay with NCI-H226 lung it was 1.92 µM; in the assay on OVCAR-4 ovarian it was 3.97 µM; with HCT-15 colon, 1.45 µM; with HL-60(TB) leukemia, 2.12 µM; in the assay with K-562 leukemia, 2.63 µM. The GI50 in the assay with MCF7 breast was 1.58 µM; with SF-295 CNS, 1.74 µM; with ACHN renal it was 1.54 µM; in the assay on M14 melanoma, 1.64 µM. Also, the TGI with SK-OV-3 ovarian was 15.7 µM; in the assay on NCI-H226 lung, 3.92 µM; with OVCAR-4 ovarian it was 17.9 µM; in the assay on HCT-15 colon it was 3.97 µM; in the assay on HL-60(TB) leukemia, 5.76 µM; in the assay on K-562 leukemia, over 100 µM. Also, the TGI in the assay with MCF7 breast was 4.95 µM; with SF-295 CNS, 3.23 µM; in the assay with ACHN renal, 2.88 µM; with M14 melanoma it was 3.4 µM.

Take `COc1ccc(Cl)cc1Nc1nc(C(F)(F)F)ccc1C(=O)N/N=C/c1cccnc1`: the GI50 was 2.47 µM in the assay on SK-OV-3 ovarian; 3.49 µM in the assay on NCI-H226 lung; 0.521 µM with OVCAR-4 ovarian; 1.42 µM in the assay with HCT-15 colon; 1.95 µM in the assay on HL-60(TB) leukemia; 3.16 µM in the assay with K-562 leukemia. Besides, the GI50 in the assay with MCF7 breast is 3.51 µM; in the assay on SF-295 CNS, 1.28 µM; in the assay on ACHN renal, 4.04 µM; with M14 melanoma, 2.42 µM. Besides, the TGI in the assay on SK-OV-3 ovarian, in the assay with NCI-H226 lung, in the assay with OVCAR-4 ovarian, with HCT-15 colon, in the assay on HL-60(TB) leukemia and with K-562 leukemia was over 100 µM each time. The TGI is over 100 µM with MCF7 breast, 9.52 µM with SF-295 CNS, over 100 µM in the assay with ACHN renal and over 100 µM in the assay with M14 melanoma.

As for `COc1ccc(Cn2cc3c(c2)-c2oncc2CC3)cc1OC`, the GI50 in the assay on SK-OV-3 ovarian was 0.152 µM; with NCI-H226 lung, 0.704 µM; in the assay on OVCAR-4 ovarian, 0.643 µM; with HCT-15 colon, 0.214 µM; in the assay on HL-60(TB) leukemia, 0.126 µM; in the assay with K-562 leukemia it was 0.163 µM. The GI50 with MCF7 breast was 0.191 µM; in the assay with SF-295 CNS, 0.15 µM; in the assay with ACHN renal it was 0.325 µM; in the assay on M14 melanoma it was 0.154 µM. The TGI in the assay on SK-OV-3 ovarian was 1.14 µM; with NCI-H226 lung, over 50 µM; in the assay on OVCAR-4 ovarian, over 50 µM; in the assay on HCT-15 colon, over 50 µM; in the assay on HL-60(TB) leukemia it was 0.439 µM; in the assay on K-562 leukemia it was over 16.6 µM. In addition, the TGI was over 41 µM with MCF7 breast, 1.71 µM in the assay with SF-295 CNS, over 50 µM in the assay on ACHN renal and 16 µM with M14 melanoma.

As for `CCOC(=O)c1c(NC(=O)c2ccccc2)sc2c3c(ccc12)OCN(C)C3`, the GI50 was 2.16 µM in the assay with SK-OV-3 ovarian; 1.9 µM in the assay with NCI-H226 lung; 1.75 µM in the assay with OVCAR-4 ovarian; 1.2 µM in the assay with HCT-15 colon; 1.81 µM with HL-60(TB) leukemia; 0.694 µM in the assay on K-562 leukemia. The GI50 in the assay on MCF7 breast was 1.59 µM; in the assay on SF-295 CNS it was 1.74 µM; with ACHN renal, 1.58 µM; in the assay on M14 melanoma, 1.74 µM. Moreover, the TGI was 4.79 µM in the assay with SK-OV-3 ovarian; 4.14 µM with NCI-H226 lung; 3.13 µM in the assay with OVCAR-4 ovarian; 2.51 µM in the assay on HCT-15 colon; 3.88 µM in the assay on HL-60(TB) leukemia; 5.11 µM with K-562 leukemia. Besides, the TGI is 3.17 µM in the assay on MCF7 breast, 3.23 µM in the assay on SF-295 CNS, 2.98 µM with ACHN renal and 3.29 µM in the assay with M14 melanoma.
